Experimental data: the supplement of paper PMC11208160

Assay: recombinant barcode read abundance after kanamycin selection (control-corrected) (log10(CPM+1)); higher = more efficient recombination; sequences stand for … in AGTGCAGAGAAAATCGGCCAGTTTTCTCTGCCTGCAGTCCGCATGCCGT…AGATTTATGCAGCGGACTGCCTTTCTCCCAAAGTGATAAACCGGACAGTATCATGGACCGGTTTTCCCGGTAATCCGTATTTGCAAGGTTGGTTTCACT; site = the 11-nt target
Outline: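 Pooled E. coli screen pairing targets with IS621 bridge RNA target-binding loops. Each oligo (promoter, target, barcode, J23119-driven first 104 bridge RNA bases) was Gibson-cloned into a vector with the remaining 73 bp and T7-inducible recombinase, then co-electroporated with a donor plasmid. Two replicates each were plated on chloramphenicol/ampicillin LB agar (control) or chloramphenicol/ampicillin/kanamycin with 0.1 mM IPTG. Recombination efficiency is recombinant-junction barcode counts as CPM, averaged, control-corrected, reported as log10(CPM+1).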
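Further: IS621 recombinase and bridge RNA in Escherichia coli cells.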

Sequence	recombinant barcode read abundance (log10)
CATCGCTCTTGGGTTCTAACCTGTTGCTT (site CATCGCTCTAA)	0.0993
CATGCGACTTGGGTTCTAACCTGTTGCTG (site CATGCGACTCA)	0.459
CATGCGACTTGGGTTCTAACCTGTTGCTG (site CATGCTACTGA)	0.351
CATGCGCCTTGGGTTCTAACCTGTTGCGG (site CATGCGCCTCC)	1.26
CATGCGCCTTGGGTTCTAACCTGTTGCGG (site CATGTGTCTCC)	0.0282
CATGCTTCTTGGGTTCTAACCTGTTGCCT (site AGAAAAGCTTT)	0.167
CATGCTTCTTGGGTTCTAACCTGTTGCCT (site CATGCTTCTAG)	0.526
CATGGGACTTGGGTTCTAACCTGTTGCAT (site CATGGGACTAT)	2.06
CATGGGACTTGGGTTCTAACCTGTTGCAT (site GGCAAACCTCC)	0.202
CATGTGTCTTGGGTTCTAACCTGTTGCGG (site CATGCGCCTCC)	0.0713
CATGTGTCTTGGGTTCTAACCTGTTGCGG (site CATGTGTCTCC)	2.69
CATTATTCTTGGGTTCTAACCTGTTGCCT (site CATAATTCTAG)	0.04
CATTATTCTTGGGTTCTAACCTGTTGCCT (site CATCATTCTAG)	0.0417
CATTATTCTTGGGTTCTAACCTGTTGCCT (site CATGATTCTAG)	0.071
CATTATTCTTGGGTTCTAACCTGTTGCCT (site CATTATTCTAG)	0.0377
CATTCCACTTGGGTTCTAACCTGTTGCCT (site CATTCCACTAG)	0.369
CATTCCACTTGGGTTCTAACCTGTTGCCT (site TCGCGTGCTCC)	0.0105
CATTCTGCTTGGGTTCTAACCTGTTGCCT (site CAATCTGCTAG)	0.136
CATTCTGCTTGGGTTCTAACCTGTTGCCT (site CACTCTGCTAG)	0.0741
CATTCTGCTTGGGTTCTAACCTGTTGCCT (site CAGTCTGCTAG)	0.136
CATTCTGCTTGGGTTCTAACCTGTTGCCT (site CATTCTGCTAG)	0.12
CATTGGACTTGGGTTCTAACCTGTTGCCT (site CAATGGACTAG)	0.112

Sequence	recombinant barcode read abundance (log10)
CATTGGACTTGGGTTCTAACCTGTTGCCT (site CACTGGACTAG)	0.0737
CATTGGACTTGGGTTCTAACCTGTTGCCT (site CAGTGGACTAG)	0.084
CATTGGACTTGGGTTCTAACCTGTTGCCT (site CATTGGACTAG)	0.662
CATTGTCCTTGGGTTCTAACCTGTTGCGT (site CATTATCCTAC)	0.15
CATTGTCCTTGGGTTCTAACCTGTTGCGT (site CATTGTCCTAC)	1.38
CCAAAGGCTTGGGTTCTAACCTGTTGCCT (site CCAAAGGCTAG)	0.656
CCAAAGGCTTGGGTTCTAACCTGTTGCCT (site CCTAATGCTAG)	0.412
CCAACACCTTGGGTTCTAACCTGTTGCCT (site CCAACACCTAG)	0.465
CCAACACCTTGGGTTCTAACCTGTTGCCT (site CCAAGTCCTAG)	0.0965
CCAAGCTCTTGGGTTCTAACCTGTTGCCT (site CCAAGCACTAG)	0.0905
CCAAGCTCTTGGGTTCTAACCTGTTGCCT (site CCAAGCCCTAG)	0.177
CCAAGCTCTTGGGTTCTAACCTGTTGCCT (site CCAAGCGCTAG)	0.214
CCAAGCTCTTGGGTTCTAACCTGTTGCCT (site CCAAGCTCTAG)	1.32
CCAAGGCCTTGGGTTCTAACCTGTTGCCT (site ACAAGGCCTAG)	0.161
CCAAGGCCTTGGGTTCTAACCTGTTGCCT (site CCAAGGCCTAG)	0.0291
CCAAGGCCTTGGGTTCTAACCTGTTGCCT (site GCAAGGCCTAG)	0.28
CCAAGGCCTTGGGTTCTAACCTGTTGCCT (site TCAAGGCCTAG)	0.0686
CCAAGTCCTTGGGTTCTAACCTGTTGCCT (site CCAACACCTAG)	0.0147
CCAAGTCCTTGGGTTCTAACCTGTTGCCT (site CCAAGTCCTAG)	0.892
CCAATCTCTTGGGTTCTAACCTGTTGCCT (site CCAATCTCTAG)	0.276
CCAATCTCTTGGGTTCTAACCTGTTGCCT (site CGTATCTCTAG)	0.0477
CCACCTTCTTGGGTTCTAACCTGTTGCCT (site AGTTGGCCTTC)	0.161

Sequence	recombinant barcode read abundance (log10)
CCACCTTCTTGGGTTCTAACCTGTTGCCT (site CCACCTTCTAG)	0.0666
CCACGAACTTGGGTTCTAACCTGTTGCTT (site CCAAGTACTAA)	0
CCACGAACTTGGGTTCTAACCTGTTGCTT (site CCACGAACTAA)	0.0915
CCACGGACTTGGGTTCTAACCTGTTGCCT (site CCAAGGACTAG)	0.143
CCACGGACTTGGGTTCTAACCTGTTGCCT (site CCACGGACTAG)	0.651
CCACGGACTTGGGTTCTAACCTGTTGCCT (site CCAGGGACTAG)	0.129
CCACGGACTTGGGTTCTAACCTGTTGCCT (site CCATGGACTAG)	0.0265
CCATACTCTTGGGTTCTAACCTGTTGCTT (site CCATACTCTAA)	1.17
CCATACTCTTGGGTTCTAACCTGTTGCTT (site CCATGGTCTAA)	0
CCATCCACTTGGGTTCTAACCTGTTGCCT (site CCATCCACTAG)	0.318
CCATCCACTTGGGTTCTAACCTGTTGCCT (site TCATCCGCTAG)	0.0523
CCATGAACTTGGGTTCTAACCTGTTGCCA (site CCATCAACTAG)	0.131
CCATGAACTTGGGTTCTAACCTGTTGCCA (site CCATGAACTTG)	0.0609
CCGATCCCTTGGGTTCTAACCTGTTGCCT (site CAGATCCCTAG)	0.348
CCGATCCCTTGGGTTCTAACCTGTTGCCT (site CCGATCCCTAG)	1.4
CCGATCCCTTGGGTTCTAACCTGTTGCCT (site CGGATCCCTAG)	0.213
CCGATCCCTTGGGTTCTAACCTGTTGCCT (site CTGATCCCTAG)	0.107
CCGCACACTTGGGTTCTAACCTGTTGCCT (site ACGCACACTAG)	0.191
CCGCACACTTGGGTTCTAACCTGTTGCCT (site CCGCACACTAG)	1.8
CCGCACACTTGGGTTCTAACCTGTTGCCT (site GCGCACACTAG)	0.213
CCGCACACTTGGGTTCTAACCTGTTGCCT (site TCGCACACTAG)	0.305
CCGCGAGCTTGGGTTCTAACCTGTTGCCG (site CCGCGAGCTCG)	0.599

Sequence	recombinant barcode read abundance (log10)
CCGCGAGCTTGGGTTCTAACCTGTTGCCG (site GATGTGCCTAC)	0.137
CCGCTAGCTTGGGTTCTAACCTGTTGCCT (site ACGCTAGCTAG)	0.0362
CCGCTAGCTTGGGTTCTAACCTGTTGCCT (site CCGCTAGCTAG)	0.183
CCGCTAGCTTGGGTTCTAACCTGTTGCCT (site GCGCTAGCTAG)	0.0389
CCGCTAGCTTGGGTTCTAACCTGTTGCCT (site TCGCTAGCTAG)	0.046
CCGCTTACTTGGGTTCTAACCTGTTGCCT (site CCGCTCGCTAG)	0.0115
CCGCTTACTTGGGTTCTAACCTGTTGCCT (site CCGCTTACTAG)	0.0232
CCGGACCCTTGGGTTCTAACCTGTTGCCT (site CCGGACCCTAG)	1.88
CCGGACCCTTGGGTTCTAACCTGTTGCCT (site GCGGACGCTAG)	0.232
CCGGAGCCTTGGGTTCTAACCTGTTGCCT (site CCGAAGCCTAG)	1.42
CCGGAGCCTTGGGTTCTAACCTGTTGCCT (site CCGCAGCCTAG)	0.271
CCGGAGCCTTGGGTTCTAACCTGTTGCCT (site CCGGAGCCTAG)	2.41
CCGGAGCCTTGGGTTCTAACCTGTTGCCT (site CCGTAGCCTAG)	0.413
CCGGGGTCTTGGGTTCTAACCTGTTGCCT (site ACGGGGTCTAG)	0.789
CCGGGGTCTTGGGTTCTAACCTGTTGCCT (site CCGGGGTCTAG)	1.76
CCGGGGTCTTGGGTTCTAACCTGTTGCCT (site GCGGGGTCTAG)	0.0665
CCGGGGTCTTGGGTTCTAACCTGTTGCCT (site TCGGGGTCTAG)	0.0922
CCGGGTTCTTGGGTTCTAACCTGTTGCCT (site CAGGGTTCTAG)	0.145
CCGGGTTCTTGGGTTCTAACCTGTTGCCT (site CCGGGTTCTAG)	1.79
CCGGGTTCTTGGGTTCTAACCTGTTGCCT (site CGGGGTTCTAG)	0.16
